# From patent US20220409617A1, “Drug Formulations and Methods of Treatment for Metabolic Disorders” (The Regents of the University of California, priority 2019, published 2022)
# Columns and labels:
# [1] = test system: KRAS G12D knock-in MEFs; assay: KRAS-mediated mitochondrial fission in KRAS G12D knock-in MEFs; format: cell-based, mouse; details: 893 5 μM
# Experimental: 3T3-L1 cells were maintained in DMEM with 10% FBS and 1% penicillin-streptomycin until induced to differentiate. 3T3-L1 pre-adipocytes were differentiated as described in (M. P. Valley, et al., Anal. Biochem. 505: 43-50, 2016, the disclosure of which is incorporated herein by reference) with slight modifications. Briefly, pre-adipocytes were grown to confluence. After 2 d, cells were induced with maintenance media containing 500 μM IBMX (15879, Sigma-Aldrich, St. Louis, Mo.), 1 μM dexamethasone (D4902, Sigma-Aldrich), 5 μg/mL bovine insulin (10516, Sigma-Aldrich), and 5 μM troglitazone (50-115-0786, ApexBio). Media was changed every 2-3 d for 7 d. On day 7 post-induction, media was changed to maintenance media+5 μg/mL bovine insulin. On day 9 post-induction, media was changed to maintenance media. Mature adipocytes were used 12-14 d post-induction for all experiments. […]
# MEFs were washed twice with PBS and fixed with 4% paraformaldehyde for 10 min at RT. […] NADH/NADPH autofluorescence was detected with 740 nm excitation and 450±50 nm detectors using a Mai Tai two-photon laser. Fluorescence microscopy was performed on a Zeiss LSM 780 confocal using a 63× oil objective with a […] numerical aperture (NA) or using a Nikon TE2000-S inverted epifluorescence microscope with a 100× oil objective (1.3 NA) and a Photometrics CoolSNAP ES2 monochrome CCD camera. […]
# [2] = test system: mouse embryonic fibroblasts; assay: Basal 2-deoxyglucose uptake in fibroblasts; format: cell-based; details: 3 h, 893 5 or 10 μM
# Experimental: Glucose uptake assays were performed using the Glucose-Glo™ uptake Kit according to manufacturer's instructions (cat # J1342, Promega, Madison, Wis.). For basal glucose uptake in MEFs, cells were plated the night before in 96-well black, clear-bottom plates. Cells were treated for 3 h, washed once in PBS, then pulsed with 1 mM 2-DG in glucose-free media containing their respective drug treatments. After 10 min, the reaction was quenched and developed according to manufacturer's protocol. To assay insulin-stimulated glucose uptake, mature adipocytes in 96-well black clear-bottom plates were serum starved for 16 h. Cells were treated in serum-free media supplemented with 0.2% fatty-acid free BSA for 3 h. Cells were washed once in PBS and incubated in glucose-free media with their respective drug treatments, with or without 100 nM bovine insulin, for 15 min. A concentrated 2-DG stock was added directly to wells for 10 min (1 mM final concentration), then the reaction stopped and developed according to manufacturer's protocol.
# [3] = test system: protein phosphatase 2A (PP2A); details: cited from earlier work
compound,measurement,setting,value
CCCCCCCCc1ccc([C@H]2CCN[C@@H]2CO)cc1.Cl [compound 893],Correction of KRAS-mediated mitochondrial fission in KRAS G12D MEFs,[1],rapidly corrected KRAS-mediated mitochondrial fission
same,Constitutive glucose uptake,[2],constitutive glucose uptake in fibroblasts was reduced
same,Effect on PP2A,[3],activate protein phosphatase 2A (PP2A)
